Test results published in patent US20190119284A1, “ErbB Inhibitors and Uses Thereof” (The Regents of the University of California, priority 2016, published 2019).

Experiments:
[1] = target: T1, HER3 intracellular domain (665-1323) (Homo sapiens, UniProt P21860); test: HER3 intracellular domain autophosphorylation on vesicles; type: biochemical; details: 1 μM HER3 intracellular domain, 200 μM ATP
T1 construct: The HER3 intracellular domain (665-1323) was concentrated on vesicles; made in house
Description: FIG. 11. […] 1 μM of The HER3 intracellular domain (665-1323) was concentrated on vesicles and incubated with 200 μM ATP in the presence of varying concentrations of compound 2. HER3 kinase activity inhibition was evaluated by western blotting for autophosphorylation of HER3.

HER3 kinase domain = target: T2, HER3 kinase domain (Homo sapiens, UniProt P21860); test: HER3 Thermofluor Assay; type: binding; details: 20 μM inhibitor
T2 construct: added to 19 μL of the HER3 kinase domain in reaction buffer; made in house; host or cells: baculovirus/insect cells (inferred from the pFastBac plasmid)
Description: HER3 Thermofluor Assay. The HER3 gatekeeper mutation (T787M) was introduced into the HER3 tyrosine kinase domain in the pFastBac plasmid using standard protocols. Both wt and T787M HER3 were purified according to the previously published protocols. Thermofluor reactions were performed in duplicate and set up as follows. 1 μL of an inhibitor or DMSO dilution in 40% DMSO:water was added to 19 μL of the HER3 kinase domain in reaction buffer. The final reaction solution contained 100 mM MOPS, 200 mM NaCl, 5% glycerol, 5 mM MgCl2, 0.1 mM DTT, 5× SYPRO orange, 2 μM kinase, 2% DMSO and 20 μM inhibitor in the wells of a 96-well, low profile, white, PCR plate (USA scientific). The solution was pipetted up and down to mix, sealed with TempAssure clear PCR flat caps (USA Scientific), centrifuged at 500×g for 30 s, and heated in a Stratagene Mx3005P RT-PCR machine from 25° C. to 95° C. in 0.5° C. increments every 30 s after an initial incubation at 25° C. for 10 min. Fluorescence was measured at the end of each 30 s period with an excitation wavelength of 492 nm and an emission wavelength of 610 nm. […] Values after the well had reached a maximum signal were discarded and the signals were fit to the Boltzmann equation in Graphpad Prism 6. ΔTm was calculated as the difference in melting temperature between the compound treated kinase compared to the DMSO control.

JAK3 = JAK3 (Homo sapiens, UniProt P52333); test: Nanosyn in vitro kinase profiling: JAK3; type: biochemical
Description: (§1) This was confirmed by in vitro profiling against a panel of kinases, with compound 2 only showing potent inhibition of EGFR and Ab1 (Table 2).
(§2) In vitro Kinome Screen. In vitro profiling of compound 2 at 100 nM was conducted by Nanosyn.

TYRO3 = TYRO3 (Homo sapiens, UniProt Q06418); test: Nanosyn in vitro kinase profiling: TYRO3; type: biochemical
Description: as §1, §2

TRKA = TRKA (Homo sapiens, UniProt P04629); test: Nanosyn in vitro kinase profiling: TRKA; type: biochemical
Description: as §1, §2

wt EGFR = target: T3, wt EGFR (Homo sapiens, UniProt P00533); test: phosphosite signaling on wt EGFR; type: cell-based
T3 construct: leaving the same phosphosites on wt EGFR relatively unaffected up to 1 μM; endogenous in cells

[2] = test system: NRG autocrine signaling in CHL-1 cells; test: NRG autocrine feedback signaling in CHL-1 cells (immunoblot); type: cell-based; details: CHL-1 cells pre-treated with lapatinib 24 h, washed, drug 24 h; at 1 μM
Description: Similar results were obtained in FaDu cells, which are also dependent on NRG autocrine signaling (FIGS. 20A-20B).
Immunoblotting. Cells were grown in 6 well plates and treated according to the indicated conditions at which point the media was aspirated, cells were washed with 1 mL of cold PBS, which was then aspirated and the plates were frozen at −80° C. The frozen cells were thawed on the plates in a buffer containing 50 mM Tris pH 7.5, 150 mM NaCl, 1 mM EDTA, and 1% Triton X-100 supplemented with 1× phosphatase (PhoSTOP, Roche) and 1× protease (complete-mini tablets, Roche) inhibitors. Lysates were scraped, transferred to Eppendorf tubes, and cleared by centrifugation at 20,000×g for 20 min at 4° C. The clarified lysates were transferred to chilled, clean tubes, and normalized for protein concentration by Bradford (Bio-Rad). The normalized lysates were diluted with Laemmli loading buffer, and 10 μg of total protein was run on a 4-12% gradient gel (Invitrogen), which was then transferred to […] nitrocellulose (Bio-Rad) and analyzed using the indicated primary antibodies according to the manufacturer's recommendations. Primary antibodies were detected using IRDye secondary antibodies (Li-Cor) according to the manufacturer's recommendations and scanned on an Odyssey imager (Li-Cor). Scanned images were cropped and assembled in Adobe Illustrator 6.

CDK1 = CDK1 (Homo sapiens, UniProt P06493); test: Nanosyn in vitro kinase profiling: CDK1; type: biochemical; details: compound at 1 μM
Chain of CDK1 (P06493 whole entry, species assumed): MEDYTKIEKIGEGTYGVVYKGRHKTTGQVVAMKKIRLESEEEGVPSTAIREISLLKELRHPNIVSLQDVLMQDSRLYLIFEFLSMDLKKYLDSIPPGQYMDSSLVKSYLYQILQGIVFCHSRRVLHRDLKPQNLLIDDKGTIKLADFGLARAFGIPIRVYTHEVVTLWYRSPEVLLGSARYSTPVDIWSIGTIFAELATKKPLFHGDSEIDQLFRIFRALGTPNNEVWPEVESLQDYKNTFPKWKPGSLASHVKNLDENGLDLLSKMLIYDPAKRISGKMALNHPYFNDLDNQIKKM
Chain of CDK1 (P14635 whole entry partner, species assumed): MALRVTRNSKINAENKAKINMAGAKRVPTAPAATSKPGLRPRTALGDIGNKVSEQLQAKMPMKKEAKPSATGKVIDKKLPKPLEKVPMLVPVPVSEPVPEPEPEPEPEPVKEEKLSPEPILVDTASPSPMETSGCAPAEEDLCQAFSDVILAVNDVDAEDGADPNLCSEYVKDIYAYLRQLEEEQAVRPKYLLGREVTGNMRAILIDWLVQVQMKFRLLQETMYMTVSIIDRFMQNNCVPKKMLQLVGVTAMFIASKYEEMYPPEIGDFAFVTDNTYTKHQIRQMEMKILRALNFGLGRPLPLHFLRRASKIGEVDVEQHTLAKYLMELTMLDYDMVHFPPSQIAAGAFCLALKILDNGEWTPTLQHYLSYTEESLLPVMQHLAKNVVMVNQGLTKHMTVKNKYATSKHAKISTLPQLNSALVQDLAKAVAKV

Chain of TRKA (P04629 33-796, species assumed): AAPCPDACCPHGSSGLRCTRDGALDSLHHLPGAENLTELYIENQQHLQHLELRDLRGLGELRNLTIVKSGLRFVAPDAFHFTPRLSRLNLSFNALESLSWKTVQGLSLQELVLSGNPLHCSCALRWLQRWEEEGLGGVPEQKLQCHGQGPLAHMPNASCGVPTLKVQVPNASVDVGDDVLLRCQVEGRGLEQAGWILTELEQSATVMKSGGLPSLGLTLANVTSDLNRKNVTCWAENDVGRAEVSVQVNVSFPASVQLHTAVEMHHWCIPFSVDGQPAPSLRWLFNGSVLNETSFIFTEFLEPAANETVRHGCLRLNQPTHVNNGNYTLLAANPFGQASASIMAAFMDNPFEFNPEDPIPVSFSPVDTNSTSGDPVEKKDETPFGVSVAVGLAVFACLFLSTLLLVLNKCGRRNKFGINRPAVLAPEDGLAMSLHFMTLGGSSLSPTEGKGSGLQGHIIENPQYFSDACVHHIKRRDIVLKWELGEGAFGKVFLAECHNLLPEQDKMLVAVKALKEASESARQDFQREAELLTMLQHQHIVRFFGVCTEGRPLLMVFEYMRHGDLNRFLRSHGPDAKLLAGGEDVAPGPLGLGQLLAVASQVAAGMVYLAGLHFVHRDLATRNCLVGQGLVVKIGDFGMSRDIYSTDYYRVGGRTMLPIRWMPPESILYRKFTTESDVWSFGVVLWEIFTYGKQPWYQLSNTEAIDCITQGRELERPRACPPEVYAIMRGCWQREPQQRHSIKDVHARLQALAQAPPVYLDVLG
Chain of JAK3 (P52333 whole entry): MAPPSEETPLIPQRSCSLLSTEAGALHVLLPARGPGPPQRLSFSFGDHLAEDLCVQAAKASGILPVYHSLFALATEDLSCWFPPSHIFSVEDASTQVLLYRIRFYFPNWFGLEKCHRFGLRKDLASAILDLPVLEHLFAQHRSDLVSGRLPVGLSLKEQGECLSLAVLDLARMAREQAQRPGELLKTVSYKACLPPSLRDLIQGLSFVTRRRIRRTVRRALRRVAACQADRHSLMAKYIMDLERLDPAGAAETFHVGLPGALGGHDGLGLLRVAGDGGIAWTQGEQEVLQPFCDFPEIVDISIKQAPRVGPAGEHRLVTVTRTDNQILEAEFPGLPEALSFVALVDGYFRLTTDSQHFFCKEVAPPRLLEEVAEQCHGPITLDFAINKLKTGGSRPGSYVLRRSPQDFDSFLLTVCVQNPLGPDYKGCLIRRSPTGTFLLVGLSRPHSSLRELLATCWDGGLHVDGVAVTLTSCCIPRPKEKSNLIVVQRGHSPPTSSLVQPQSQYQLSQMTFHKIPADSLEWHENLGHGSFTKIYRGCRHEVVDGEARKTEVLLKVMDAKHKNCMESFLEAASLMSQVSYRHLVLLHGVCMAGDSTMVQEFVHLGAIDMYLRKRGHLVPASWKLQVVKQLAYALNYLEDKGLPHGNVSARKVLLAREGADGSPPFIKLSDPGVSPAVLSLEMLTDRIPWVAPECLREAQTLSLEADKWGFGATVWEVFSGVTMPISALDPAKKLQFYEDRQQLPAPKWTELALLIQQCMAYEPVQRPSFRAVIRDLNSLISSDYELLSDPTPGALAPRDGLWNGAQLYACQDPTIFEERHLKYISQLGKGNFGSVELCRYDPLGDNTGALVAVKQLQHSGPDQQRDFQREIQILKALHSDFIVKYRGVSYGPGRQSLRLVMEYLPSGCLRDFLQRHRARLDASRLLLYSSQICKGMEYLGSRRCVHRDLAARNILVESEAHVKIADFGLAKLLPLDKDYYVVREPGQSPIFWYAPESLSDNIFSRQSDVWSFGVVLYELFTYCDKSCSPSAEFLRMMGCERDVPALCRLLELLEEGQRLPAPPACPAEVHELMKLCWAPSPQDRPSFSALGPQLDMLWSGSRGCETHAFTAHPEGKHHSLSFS
Chain of TYRO3 (Q06418 41-890, species assumed): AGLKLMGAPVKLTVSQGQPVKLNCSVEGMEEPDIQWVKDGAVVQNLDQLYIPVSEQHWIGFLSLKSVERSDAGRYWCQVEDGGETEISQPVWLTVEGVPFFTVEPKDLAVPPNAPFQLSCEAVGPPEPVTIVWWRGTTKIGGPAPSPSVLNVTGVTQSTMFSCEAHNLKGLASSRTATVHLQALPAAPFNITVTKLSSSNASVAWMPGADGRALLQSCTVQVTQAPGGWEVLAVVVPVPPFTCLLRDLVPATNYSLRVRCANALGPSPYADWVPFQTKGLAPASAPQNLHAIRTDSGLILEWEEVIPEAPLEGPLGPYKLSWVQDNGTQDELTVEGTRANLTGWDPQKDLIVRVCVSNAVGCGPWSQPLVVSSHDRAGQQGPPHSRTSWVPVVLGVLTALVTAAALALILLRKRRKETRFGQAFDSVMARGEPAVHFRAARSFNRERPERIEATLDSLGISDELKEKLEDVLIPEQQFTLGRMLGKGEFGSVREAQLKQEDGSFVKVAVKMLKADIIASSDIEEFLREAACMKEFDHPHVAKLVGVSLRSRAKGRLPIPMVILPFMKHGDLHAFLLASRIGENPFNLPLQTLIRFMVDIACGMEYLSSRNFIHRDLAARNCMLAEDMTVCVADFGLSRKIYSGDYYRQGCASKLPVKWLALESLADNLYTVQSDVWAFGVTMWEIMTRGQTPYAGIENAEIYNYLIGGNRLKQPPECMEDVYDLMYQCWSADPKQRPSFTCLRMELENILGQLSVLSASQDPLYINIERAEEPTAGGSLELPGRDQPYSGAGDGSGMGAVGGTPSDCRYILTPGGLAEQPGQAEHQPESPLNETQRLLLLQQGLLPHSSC
T1 sequence (P21860 684-1342): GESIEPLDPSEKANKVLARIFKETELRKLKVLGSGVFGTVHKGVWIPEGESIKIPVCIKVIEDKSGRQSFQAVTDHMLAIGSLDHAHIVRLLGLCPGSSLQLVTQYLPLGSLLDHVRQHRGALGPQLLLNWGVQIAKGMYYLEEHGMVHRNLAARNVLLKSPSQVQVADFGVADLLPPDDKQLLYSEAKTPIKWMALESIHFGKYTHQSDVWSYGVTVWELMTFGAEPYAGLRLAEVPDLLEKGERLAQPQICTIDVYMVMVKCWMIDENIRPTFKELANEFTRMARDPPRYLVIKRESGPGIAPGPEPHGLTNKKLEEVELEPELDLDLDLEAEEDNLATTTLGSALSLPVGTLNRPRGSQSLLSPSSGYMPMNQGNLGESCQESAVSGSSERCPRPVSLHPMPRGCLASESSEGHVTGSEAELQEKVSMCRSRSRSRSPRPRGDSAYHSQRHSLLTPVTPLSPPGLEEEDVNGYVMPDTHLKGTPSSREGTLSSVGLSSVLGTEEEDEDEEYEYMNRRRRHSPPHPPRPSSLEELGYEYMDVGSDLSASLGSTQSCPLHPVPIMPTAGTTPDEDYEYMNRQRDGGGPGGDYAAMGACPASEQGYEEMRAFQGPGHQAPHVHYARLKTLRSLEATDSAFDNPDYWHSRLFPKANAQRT
T2 sequence (P21860 709-966 limits assumed): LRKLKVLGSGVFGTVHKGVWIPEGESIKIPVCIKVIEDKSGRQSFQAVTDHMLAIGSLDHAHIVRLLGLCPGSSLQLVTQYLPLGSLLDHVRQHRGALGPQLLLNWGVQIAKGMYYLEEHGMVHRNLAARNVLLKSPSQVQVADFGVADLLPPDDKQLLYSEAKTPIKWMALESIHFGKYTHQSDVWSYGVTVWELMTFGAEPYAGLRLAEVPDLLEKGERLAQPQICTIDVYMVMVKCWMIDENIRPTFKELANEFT

COc1ccc(-c2ccco2)cc1Nc1ncnc2[nH]nc(-c3ccco3)c12 [compound 2, 3-(furan-2-yl)-N-(5-(furan-2-yl)-2-methoxyphenyl)-1H-pyrazolo[3,4-d]pyrimidin-4-amine]
binding to HER3 / inhibition of HER3 autophosphorylation [1]: binds to the active site of HER3
binding to HER3 (HER3 kinase domain): capable of binding to HER3
inhibition at 0.1 µM (JAK3; compound at 100 nM): 20.4%
inhibition at 1 µM (JAK3; compound at 1 μM): 69.4%
inhibition at 0.1 µM (TYRO3; compound at 100 nM): 3.29%
inhibition at 1 µM (TYRO3; compound at 1 μM): 5.56%
inhibition at 0.1 µM (TRKA; compound at 100 nM): 2.38%
inhibition at 1 µM (TRKA; compound at 1 μM): 4.5%

COc1ccc(-c2ccoc2)cc1Nc1ncnc2[nH]cc(-c3cc[nH]n3)c12 [compound 3, N-(5-(furan-3-yl)-2-methoxyphenyl)-5-(1H-pyrazol-3-yl)-7H-pyrrolo[2,3-d]pyrimidin-4-amine]
same phosphosites on wt EGFR relatively unaffected up to (wt EGFR): > 1 µM
inhibition of feedback-released signaling [2]: complete inhibition
inhibition at 1 µM (CDK1): 18%
